Data: the supplement of paper PMC10331698
± gives the standard deviation of the averaged measurements.

What was measured:
Experiment in all cases: level (log10 ratio to DMSO vehicle control); higher = higher biomarker level / cell amount than vehicle control
[1] = compound: C=C(C)C(=O)OCCC(F)(F)C(F)(F)C(F)(F)C(F)(F)C(F)(F)C(F)(F)C(F)(F)C(F)(F)F [8:2 Fluorotelomer methacrylate] (in DMSO)
Procedure: (§1)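 BioMAP Diversity Plus panel of 12 human primary cell co-culture systems (3C, 4H, LPS, SAg, BT, BF4T, BE3C, CASM3C, HDF3CGF, KF3CT, MyoF, Mphg). Compounds were added 1 h before stimulation and left for 24 h (MyoF 48 h; BT 72 h for soluble read-outs or 6 d for IgG). Biomarkers were read by ELISA, cytotoxicity by SRB, PBMC viability and proliferation by Alamar Blue. Each well value was divided by the mean of 8 DMSO control wells on the same plate and log10 transformed; duplicate blinded samples were tested at 4 concentrations.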

[2] = compound: CN(C(=O)C(F)(F)C(F)(F)C(F)(F)F)[Si](C)(C)C [N-Methyl-N-trimethylsilylheptafluorobutyramide] (in DMSO)
Procedure: as §1

[3] = compound: CO[Si](C)(CCC(F)(F)C(F)(F)C(F)(F)C(F)(F)C(F)(F)C(F)(F)F)OC [Dimethoxymethyl((perfluorohexyl)ethyl)silane] (in DMSO)
Procedure: as §1

[4] = compound: O=C(O)C(F)(F)C(F)(F)C(F)(F)OC(F)(F)F [Perfluoro(4-methoxybutanoic) acid] (in DMSO)
Procedure: as §1

[5] = compound: O=S(=O)(O)C(F)(F)C(F)(F)OC(F)(F)C(F)(F)F [Perfluoro(2-ethoxyethane)sulfonic acid] (in DMSO)
Procedure: as §1

[6] = compound: O=S(=O)(O)CCC(F)(F)C(F)(F)C(F)(F)C(F)(F)C(F)(F)C(F)(F)C(F)(F)C(F)(F)F [8:2 Fluorotelomer sulfonic acid] (in DMSO)
Procedure: as §1

[7] = compound: OCC(F)(F)C(F)(F)C(F)(F)C(F)F [1H,1H,5H-Perfluoropentanol] (in DMSO)
Procedure: as §1

Row | Test System | level (log10) ([1]; 6700 nM) | level (log10) ([1]; 20000 nM) | level (log10) ([2]; 6700 nM) | level (log10) ([2]; 20000 nM) | level (log10) ([2]; 60000 nM) | level (log10) ([3]; 6700 nM) | level (log10) ([3]; 20000 nM) | level (log10) ([4]; 6700 nM) | level (log10) ([4]; 20000 nM) | level (log10) ([4]; 60000 nM) | level (log10) ([5]; 6700 nM) | level (log10) ([5]; 20000 nM) | level (log10) ([5]; 60000 nM) | level (log10) ([6]; 6700 nM) | level (log10) ([6]; 20000 nM) | level (log10) ([6]; 60000 nM) | level (log10) ([7]; 6700 nM) | level (log10) ([7]; 20000 nM) | level (log10) ([7]; 60000 nM)
1 | LPS:CCL2/MCP-1 | -0.0045 ± 0.047 | 0.042 ± 0.0085 | -0.0085 ± 0.0021 | -0.012 ± 0.013 | -0.0005 ± 0.023 | -0.0155 ± 0.028 | 0.013 ± 0.048 | 0.004 ± 0.013 | -0.001 ± 0.024 | 0.025 ± 0.058 | 0.012 ± 0.0057 | 0.021 ± 0.0071 | 0.032 ± 0.035 | 0.0135 ± 0.023 | 0.016 ± 0.0028 | -0.055 ± 0.045 | -0.006 ± 0.0071 | 0.004 ± 0.014 | 0.007 ± 0.04
2 | LPS:CD40 | 0.0345 ± 0.0092 | -0.028 ± 0.11 | -0.023 ± 0.027 | -0.0065 ± 0.011 | -0.0325 ± 0.025 | -0.0085 ± 0.029 | -0.009 ± 0.025 | -0.0385 ± 0.06 | 0 ± 0.055 | -0.0465 ± 0.094 | 0.0515 ± 0.016 | 0.022 ± 0.0028 | 0.047 ± 0.016 | 0.037 ± 0.016 | -0.0195 ± 0.021 | -0.128 ± 0.024 | -0.017 ± 0.016 | -0.0085 ± 0.005 | 0.0145 ± 0.015
3 | LPS:CD62E/E-Selectin | 0.028 ± 0.0014 | 0.027 ± 0.035 | 0.0095 ± 0.026 | 0.002 ± 0.014 | 0.0105 ± 0.054 | 0.0135 ± 0.011 | 0.01 ± 0.0099 | -0.009 ± 0.0099 | -0.007 ± 0.014 | -0.002 | 0.0105 ± 0.022 | 0.0215 ± 0.019 | 0.0275 ± 0.0078 | 0.0235 ± 0.06 | 0.033 ± 0.02 | 0.082 ± 0.025 | -0.0165 ± 0.00071 | 0.0125 ± 0.0064 | 0.0055 ± 0.022
4 | LPS:CD69 | -0.0425 ± 0.04 | -0.0355 ± 0.05 | -0.004 ± 0.011 | -0.013 ± 0.041 | 0.004 ± 0.011 | -0.046 ± 0.013 | -0.0265 ± 0.0092 | 0.02 ± 0.11 | 0.0405 ± 0.12 | 0.0255 ± 0.086 | 0.0305 ± 0.04 | -0.007 ± 0.027 | -0.023 ± 0.068 | -0.0455 ± 0.06 | -0.035 ± 0.071 | -0.0835 ± 0.049 | -0.02 ± 0.011 | -0.0015 ± 0.013 | 0.0175 ± 0.0078
5 | LPS:CD106/VCAM-1 | -0.032 ± 0.054 | -0.0515 ± 0.049 | -0.0165 ± 0.0021 | -0.0035 ± 0.005 | -0.004 ± 0.041 | -0.0105 ± 0.04 | 0.0095 ± 0.0035 | -0.019 ± 0.02 | -0.005 ± 0.025 | -0.0155 ± 0.019 | 0.013 ± 0.034 | -0.007 ± 0.033 | 0.0165 ± 0.049 | -0.0135 ± 0.073 | -0.021 ± 0.065 | -0.0535 ± 0.077 | 0.007 ± 0.014 | -0.008 ± 0.0042 | 0.0095 ± 0.0035
6 | LPS:CD141/Thrombomodulin | -0.021 ± 0.038 | -0.064 ± 0.0099 | -0.0125 ± 0.0064 | -0.014 ± 0.0085 | -0.018 ± 0.014 | 0.024 ± 0.034 | 0.006 ± 0.016 | -0.028 ± 0.023 | -0.0285 ± 0.052 | -0.0195 ± 0.053 | 0.067 ± 0.0085 | 0.057 ± 0.055 | 0.051 ± 0.072 | 0.007 ± 0.11 | 0.0505 ± 0.071 | 0.205 ± 0.016 | -0.0125 ± 0.0035 | 0.008 ± 0.02 | 0.023 ± 0.0099
7 | LPS:CD142/Tissue Factor | 0.0615 ± 0.063 | 0.0315 ± 0.083 | 0.015 ± 0.065 | 0.0255 ± 0.1 | -0.0085 ± 0.1 | 0.011 ± 0.048 | 0.017 ± 0.058 | -0.0085 ± 0.066 | -0.012 ± 0.054 | 0.016 ± 0.051 | 0.0685 ± 0.042 | 0.1 ± 0.057 | 0.0485 ± 0.093 | 0.0005 ± 0.067 | 0.024 ± 0.088 | -0.0025 ± 0.011 | -0.001 ± 0.021 | 0.017 ± 0.03 | 0.023 ± 0.021
